Starred links: 1 amine or outer side, 2 acyl side, 3 side chain; linkers in the order of their positions; H or OH if unused. Positions of bridges follow the written chain, without caps; N, C: chain ends. Residues, ends and D or L forms follow the SMILES beside them. *: point of attachment. C18 diacid = O=C(O)CCCCCCCCCCCCCCCCC(=O)*; γGlu = O=C(O)[C@H](CCC(=O)[*:2])N[*:1]; AEEA = NCCOCCOCC(=O)O
Legend:
[1] = in vitro plasma stability in human plasma; conditions: 37 °C, over 5 h
[2] = pharmacokinetic study in rats, i.v. dosing; type: in vivo; conditions: male, Sprague-Dawley, rat, plasma, iv, 2 nmol/kg, mean
hGIP-R ECD [3] = molecular target: T1, hGIP-R ECD (Homo sapiens, UniProt P48546); assay: multi-concentration BLI binding of purified peptides to hGIP-R ECD
T1 sequence (P48546 22-138): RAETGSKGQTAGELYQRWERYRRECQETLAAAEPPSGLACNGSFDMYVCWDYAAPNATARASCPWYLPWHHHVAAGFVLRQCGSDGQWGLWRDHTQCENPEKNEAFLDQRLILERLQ

[4] = cited from earlier work
hGIP-R ECD [5] = molecular target: T1, hGIP-R ECD; assay: single-concentration BLI binding of crude peptides to biotinylated hGIP-R ECD

Row | binding to hGIP-R ECD (in words) (hGIP-R ECD [3]) | Compound | In vitro plasma stability (in words) [1] | further results
1 | None of the linear variants | Ac-MSFRFFSLLWPFSGSGSDYKDDDDK-NH2 [B_68.2] |  | 
2 | None of the linear variants | Ac-MSFTHFHMLWPFSGSGSDYKDDDDK-NH2 [B_1275.2] |  | 
3 | None of the linear variants | Ac-MSFIHWDMLWPFSGSGSDYKDDDDK-NH2 [B_5.2] |  | 
4 | did not show any binding | CC(=O)N[C@@H](C)C(=O)N[C@H]1CSSC[C@@H](C(=O)NCC(=O)N[C@@H](CO)C(=O)NCC(=O)N[C@@H](CO)C(=O)N[C@@H](CC(=O)O)C(=O)N[C@@H](Cc2ccc(O)cc2)C(=O)N[C@@H](CCCCN)C(=O)N[C@@H](CC(=O)O)C(=O)N[C@@H](CC(=O)O)C(=O)N[C@@H](CC(=O)O)C(=O)N[C@@H](CC(=O)O)C(=O)N[C@@H](CCCCN)C(N)=O)NC(=O)[C@@H]2CCCN2C(=O)[C@@H]2CCCN2C(=O)[C@H](Cc2c[nH]c3ccccc23)NC(=O)[C@H](CC(C)C)NC(=O)[C@H](CC(C)C)NC(=O)[C@H](Cc2c[nH]cn2)NC(=O)[C@H](Cc2ccccc2)NC(=O)[C@H](Cc2c[nH]cn2)NC(=O)[C@H]([C@@H](C)O)NC(=O)[C@H](Cc2ccccc2)NC1=O [B_1275.10] (Ac-ACFTHFHLLWPPCGSGSDYKDDDDK-NH2; disulfide 2-13) |  | 

The remaining lines, values behind:

Row | Compound | binding to hGIP-R ECD (in words) (hGIP-R ECD [3]) | In vitro plasma stability (in words) [1] | further results
5 | CSCC[C@H](NC(=O)COCCOCCNC(=O)COCCOCCNC(=O)CC[C@H](NC(=O)CCCCCCCCCCCCCCCCC(=O)O)C(=O)O)C(=O)N[C@H]1CSSC[C@@H](C(N)=O)NC(=O)[C@H](Cc2ccccc2)NC(=O)[C@@H]2CCCN2C(=O)[C@H](Cc2c[nH]c3ccccc23)NC(=O)[C@H](CC(C)C)NC(=O)[C@H](CCSC)NC(=O)[C@H](Cc2c[nH]cn2)NC(=O)[C@H](Cc2ccccc2)NC(=O)[C@H](Cc2c[nH]cn2)NC(=O)[C@H]([C@@H](C)O)NC(=O)[C@H](Cc2ccccc2)NC1=O [B_1275.3] ({C18 diacid-γGlu-AEEA-AEEA}-MCFTHFHMLWPFC-NH2; disulfide 2-13) |  | no decrease in plasma stability | 
6 | CSCC[C@H](NC(=O)COCCOCCNC(=O)COCCOCCNC(=O)CC[C@H](NC(=O)CCCCCCCCCCCCCCCCC(=O)O)C(=O)O)C(=O)N[C@H]1CSSC[C@@H](C(=O)NCC(=O)N[C@@H](CO)C(=O)NCC(=O)N[C@@H](CO)C(=O)N[C@@H](CC(=O)O)C(=O)N[C@@H](Cc2ccc(O)cc2)C(=O)N[C@@H](CCCCN)C(=O)N[C@@H](CC(=O)O)C(=O)N[C@@H](CC(=O)O)C(=O)N[C@@H](CC(=O)O)C(=O)N[C@@H](CC(=O)O)C(=O)N[C@@H](CCCCN)C(N)=O)NC(=O)[C@H](Cc2ccccc2)NC(=O)[C@@H]2CCCN2C(=O)[C@H](Cc2c[nH]c3ccccc23)NC(=O)[C@H](CC(C)C)NC(=O)[C@H](CCSC)NC(=O)[C@H](Cc2c[nH]cn2)NC(=O)[C@H](Cc2ccccc2)NC(=O)[C@H](Cc2c[nH]cn2)NC(=O)[C@H]([C@@H](C)O)NC(=O)[C@H](Cc2ccccc2)NC1=O [B_1275.1] ({C18 diacid-γGlu-AEEA-AEEA}-MCFTHFHMLWPFCGSGSDYKDDDDK-NH2; disulfide 2-13) |  |  | half-life ([2]; t½ (h)): 10.7 h
7 | Ac-MSFQYFHILWPFSGSGSDYKDDDDK-NH2 [B_3.2] | None of the linear variants |  | 
8 | CC(=O)N[C@@H](C)C(=O)N[C@H]1CSSC[C@@H](C(=O)NCC(=O)N[C@@H](CO)C(=O)NCC(=O)N[C@@H](CO)C(=O)N[C@@H](CC(=O)O)C(=O)N[C@@H](Cc2ccc(O)cc2)C(=O)N[C@@H](CCCCN)C(=O)N[C@@H](CC(=O)O)C(=O)N[C@@H](CC(=O)O)C(=O)N[C@@H](CC(=O)O)C(=O)N[C@@H](CC(=O)O)C(=O)N[C@@H](CCCCN)C(N)=O)NC(=O)[C@H](Cc2ccccc2)NC(=O)[C@@H]2CCCN2C(=O)[C@H](Cc2c[nH]c3ccccc23)NC(=O)[C@H](CC(C)C)NC(=O)[C@H](CC(C)C)NC(=O)[C@H](CC(=O)O)NC(=O)[C@H](Cc2ccccc2)NC(=O)[C@H](Cc2c[nH]cn2)NC(=O)[C@H]([C@@H](C)O)NC(=O)[C@H](Cc2ccccc2)NC1=O [B_1275.4] (Ac-ACFTHFDLLWPFCGSGSDYKDDDDK-NH2; disulfide 2-13) |  | no decrease in plasma stability | half-life ([2]; t½ (min)): 0.0583 h
9 | semaglutide |  |  | t1/2 in rats [4]: 7 h
10 | CSCC[C@H](NC(C)=O)C(=O)N[C@H]1CSSC[C@@H](C(=O)NCC(=O)N[C@@H](CO)C(=O)NCC(=O)N[C@@H](CO)C(=O)N[C@@H](CC(=O)O)C(=O)N[C@@H](Cc2ccc(O)cc2)C(=O)N[C@@H](CCCCN)C(=O)N[C@@H](CC(=O)O)C(=O)N[C@@H](CC(=O)O)C(=O)N[C@@H](CC(=O)O)C(=O)N[C@@H](CC(=O)O)C(=O)N[C@@H](CCCCN)C(N)=O)NC(=O)[C@H](Cc2ccccc2)NC(=O)[C@@H]2CCCN2C(=O)[C@H](Cc2c[nH]c3ccccc23)NC(=O)[C@H](CC(C)C)NC(=O)[C@H](CC(C)C)NC(=O)[C@H](CO)NC(=O)[C@H](Cc2ccccc2)NC(=O)[C@H](Cc2ccccc2)NC(=O)[C@H](CCCNC(=N)N)NC(=O)[C@H](Cc2ccccc2)NC1=O [B_68] (Ac-MCFRFFSLLWPFCGSGSDYKDDDDK-NH2; disulfide 2-13) |  |  | binding to hGIP-R ECD (in words) (hGIP-R ECD [5]): did not reveal any binding
11 | CC(C)C[C@@H]1NC(=O)[C@H](CC(=O)O)NC(=O)[C@H](Cc2ccccc2)NC(=O)[C@H](Cc2c[nH]cn2)NC(=O)[C@H]([C@@H](C)O)NC(=O)[C@H](Cc2ccccc2)NC(=O)[C@@H](NC(=O)[C@H](C)NC(=O)COCCOCCNC(=O)COCCOCCNC(=O)CC[C@H](NC(=O)CCCCCCCCCCCCCCCCC(=O)O)C(=O)O)CSSC[C@@H](C(=O)O)NC(=O)[C@H](Cc2ccccc2)NC(=O)[C@@H]2CCCN2C(=O)[C@H](Cc2c[nH]c3ccccc23)NC(=O)[C@H](CC(C)C)NC1=O [B_1275.6] ({C18 diacid-γGlu-AEEA-AEEA}-ACFTHFDLLWPFC-OH; disulfide 2-13) |  | no decrease in plasma stability | half-life ([2]; t½ (h)): 4.2 h
12 | CC(=O)N[C@@H](C)C(=O)N[C@H]1CSSC[C@@H](C(=O)O)NC(=O)[C@H](Cc2ccccc2)NC(=O)[C@@H]2CCCN2C(=O)[C@H](Cc2c[nH]c3ccccc23)NC(=O)[C@H](CC(C)C)NC(=O)[C@H](CC(C)C)NC(=O)[C@H](CC(=O)O)NC(=O)[C@H](Cc2ccccc2)NC(=O)[C@H](Cc2c[nH]cn2)NC(=O)[C@H]([C@@H](C)O)NC(=O)[C@H](Cc2ccccc2)NC1=O [B_1275.5] (Ac-ACFTHFDLLWPFC-OH; disulfide 2-13) |  | no decrease in plasma stability | half-life ([2]; t½ (min)): 0.03 h

Reference: publication PMC8926291 (Chemical Science, 2022)
